Measured values: patent US20230374148A1, “BINDING MOLECULES THAT MULTIMERISE CD45” (UCB BIOPHARMA SRL, priority 2020, published 2023)

Assays:
Assay type in all cases: cell-based, human
M1 macrophages [1] = assay: Macrophage viability, CellTiter-Glo, M1; details: 24 hr, BYbe 250-2 nM, Camptothecin, Staurosporine 5 μM
Method: (§1) Human PBMC derived from blood leukocyte platelet-apheresis cones (NHSBT Oxford) were banked as frozen aliquots. Prior to an assay being performed, 2 vials of frozen cells, each containing 5×10^7 cells in 1 ml, were thawed in a 37° C. water bath and then added to 50 ml complete media (RPMI 1640+2 mM GlutaMAX+1% Pen/Strep, all previous supplied by Invitrogen, +10% Fetal Bovine Serum (FBS), Sigma Aldrich). Cells were spun (500 g, 5 min, at RT) and re-suspended in 30 ml complete media to wash and spun again. Cells were resuspended in 20 ml MACS buffer (PBS, pH 7.2, 0.5% bovine serum albumin (BSA), and 2 mM EDTA, Sigma Aldrich) and counted on a ChemoMetec NucleoCounter NC-3000 to determine concentration and viability. PBMCs from one donor (UCB-Cones 802) was used in this assay.
(§2) Monocyte isolation was performed using the Pan Monocyte Isolation Kit (Miltenyi Biotec, cat no. 130-096-537) and LS columns (Miltenyi Biotec, cat no 130-042-401) according to manufacturer's instructions. 100 μl of cells were removed and stored on ice to check monocyte purity post isolation. […]
(§3) One microplate was incubated for a further 24 hours in 37° C. incubator with 5% CO2 before being used to assess cell viability with CellTiter-Glo®. […] The plate was then read on the BMG Labtech PHERAstar FSX microplate reader using the CellTiter-Glo program.

M2 macrophages [2] = assay: Macrophage viability, CellTiter-Glo, M2; details: 24 hr, BYbe 250-2 nM, Camptothecin, Staurosporine 5 μM
Method: as §1, §2, §3

M1 macrophages [3] = assay: Caspase-3/7 induction, IncuCyte, M1; details: over 6 days, BYbe 250-2 nM, Camptothecin, Staurosporine 5 μM
Method: (§4) Human PBMC derived from blood leukocyte platelet-apheresis cones (NHSBT Oxford) were banked as frozen aliquots. Prior to an assay being performed, 2 vials of frozen cells, each containing 5×10^7 cells in 1 ml, were thawed in a 37° C. water bath and then added to 50 ml complete media (RPMI 1640+2 mM GlutaMAX+1% Pen/Strep, all previous supplied by Invitrogen, +10% Fetal Bovine Serum (FBS), Sigma Aldrich). Cells were spun (500 g, 5 min, at RT) and re-suspended in 30 ml complete media to wash and spun again. Cells were resuspended in 20 ml MACS buffer (PBS, pH 7.2, 0.5% bovine serum albumin (BSA), and 2 mM EDTA, Sigma Aldrich) and counted on a ChemoMetec NucleoCounter NC-3000 to determine concentration and viability. PBMCs from one donor (UCB-Cones 802) was used in this assay. Monocyte isolation was performed using the Pan Monocyte Isolation Kit (Miltenyi Biotec, cat no. 130-096-537) and LS columns (Miltenyi Biotec, cat no 130-042-401) according to manufacturer's instructions. 100 μl of cells were removed and stored on ice to check monocyte purity post isolation. Isolated cells were stained with BV421 mouse anti-human CD14 (BD Biosciences, cat no. 563743) to check for purity of monocytes using FACS. M-CSF (Sigma Aldrich, cat no. SRP3110) and GM-CSF (R&D Systems, cat no. 215-GM/CF) were prepared at 100 μg/ml. Cells were prepared in M1 media (complete media+50 ng/ml GM-CSF) or M2 media (complete media+50 ng/ml M-CSF) at a concentration of 2.5×10^5 cells/ml. 200 μl cells were plated into two Corning 96 well Black polystyrene microplates (Sigma Aldrich) and incubated at 37° C., 5% CO2. Following a 3-day incubation at 37° C., 5% CO2, the plate was spun (500 g, 5 min, RT), buffer was aspirated, the cells were washed once with PBS and then resuspended in 200 μL of M1 media or M2 media. […] The caspase dye was measured with the green laser (350 ms) and the cytotox dye was measured with a red laser (650 ms). The green dye signal was analysed using Incucyte® Zoom2016B. […]

M2 macrophages [4] = assay: Caspase-3/7 induction, IncuCyte, M2; details: over 6 days, BYbe 250-2 nM, Camptothecin, Staurosporine 5 μM
Method: as §4

Structure (SMILES) | cell viability (CellTiter-Glo) (M1 macrophages [1]) | cell viability (CellTiter-Glo) (M2 macrophages [2]) | levels of Caspase-3/7 (M1 macrophages [3]) | levels of Caspase-3/7 (M2 macrophages [4])
CN[C@@H]1C[C@H]2O[C@@](C)([C@@H]1OC)n1c3ccccc3c3c4c(c5c6ccccc6n2c5c31)C(=O)NC4 [Staurosporine] | little or no viable cells detected | little or no viable cells detected | very low | very low
CC[C@@]1(O)C(=O)OCc2c1cc1n(c2=O)Cc2cc3ccccc3nc2-1 [Camptothecin] | reduced the viability | reduced the viability | significant levels | significant levels
